Experimental findings from patent publication US20260207620A1, “SOLID DISPERSION OF COMPOUND HAVING P2X4 RECEPTOR ANTAGONISTIC ACTION” (NIPPON CHEMIPHAR CO., LTD., priority 2023, published 2026) are described below.

A short description of data set [1]: solubility in water. It is filed as physicochemical.
Data set [2] is described as follows: PK test of compound F2 and its solid dispersion, oral, fasted male Wistar rats. It is filed as in vivo. Particulars: Wistar (Crlj:WI), rat, compound F2 in plasma, 10 mg/kg (as compound F2) p.o., n=3. As to the method: Fasted male rats (8 weeks old, Wistar (Crlj:WI), Charles River Laboratories Japan, Inc.) were orally administered a crystalline form of the compound F2 suspended in a 1% methylcellulose aqueous solution or a solid dispersion comprising the compound F2 suspended in water for injection. The dosage of the compound F2 in each group was 10 mg/kg (n=3 in each group). Blood samples were collected in a time-dependent manner at 0.5, 1, 2, 4, 6, 8, and 24 hours after oral administration. The concentration of the compound F2 in the obtained plasma was measured by LC-MS/MS (MS/MS: API4000, SCIEX, LC: LC-20AD series, Shimadzu Corporation). Tmax, Cmax, and AUClast were calculated from the plasma concentration transition (Table 5).

The nature of data set [3]: PK test, solid dispersions E and B of compound F48, single oral dose, fasted male Wistar rats. Format: in vivo. The following applies: Wistar (Crlj:WI), rat, compound F48 in plasma, 10 mg/kg (as compound F48) p.o. once, n=3. The protocol: Solid dispersions E and B were prepared using a rotary evaporator according to the following method. The compound F48 was dissolved in THF to result in 2.5 mg/mL. By the same procedure as above, each polymer was prepared to result in 25 mg/mL. Next, the compound F48 solution was added to the polymer solution with stirring such that the weight ratio between the compound F48 and the carrier was 1:25. The resulting mixture was transferred to a recovery flask, and the organic solvent was then removed using a rotary evaporator (Yamato Scientific Co., Ltd., distillation apparatus). The recovery flask was transferred to a desiccator and dried under reduced pressure using a vacuum pump for approximately 16 hours, thereby obtaining solid dispersions E and B. […]
Blood samples were collected in a time-dependent manner before oral administration and at 0.5, 1, 3, 5, 8, and 24 hours after oral administration. The concentration of the compound F48 in the obtained plasma was measured by HPLC (Hitachi High-Technologies Corporation). The time to reach the maximum plasma concentration (Tmax), the maximum plasma concentration (Cmax), and the area under the plasma concentration-time curve (AUClast) were calculated from the plasma concentration transition (Table 2).

The term AUC(0-t) denotes the area under the concentration-time curve up to a stated or last time point. Low readings indicate less exposure, high ones more exposure. As a reminder, the Cmax is the maximum level reached in the sampled fluid or tissue. As usually defined, the Tmax is the time from dosing to the highest level.

Regarding `O=C1CC(=O)N(c2ccc(NC(=O)c3ccccc3C(F)(F)F)cc2)c2ccc3ccccc3c2N1` [Compound F2, 5-[4-[2-(trifluoromethyl)benzoyl]aminophenyl]-1H-naphtho [1,2-b][1,4]diazepine-2,4 (3H,5H)-dione], the solubility in water entry in data set [1] was “poorly soluble in water”. In addition, in data set [2], the AUC(0-t) was 5710 ± 520 ng·h/mL, the Cmax was 386 ± 56 ng/mL and the time to peak (Tmax) is 4 h.
In the case of `O=C1CC(=O)N(c2ccc(NC(=O)c3ccccc3I)cc2)c2ccc3ccccc3c2N1` [Compound F48, 5-[4-(2-iodobenzoylamino)phenyl]-1H-naphtho [1,2-b][1,4]diazepine-2,4 (3H,5H)-dione], the solubility in water entry in data set [1] is recorded as “poorly soluble in water”.
On the same count and under the same terms, as for `CCc1ccccc1C(=O)Nc1ccc(N2C(=O)CC(=O)Nc3c2ccc2ccccc32)cc1` [Compound F57, 5-[4-[(2-ethylbenzoyl)amino]phenyl]-1H-naphtho [1,2-b][1,4]diazepine-2,4 (3H,5H)-dione], the entry is “poorly soluble in water”.
With `O=C1CC(=O)N(c2ccc(NC(=O)c3ccccc3I)cc2)c2ccc3ccccc3c2N1` [Control, 5-[4-(2-iodobenzoylamino)phenyl]-1H-naphtho [1,2-b][1,4]diazepine-2,4 (3H,5H)-dione], in data set [3], the Cmax is below 25 ng/mL.
